For the test, the target named is T1, POSH (Homo sapiens, UniProt Q7Z6J0).
T1 construct: GST-POSH lot NB81/p.118 3.6 mg/ml; fused on or other part: GST tag, used for detection with anti-GST XL665
T1 sequence (Q7Z6J0 1-269 limits assumed): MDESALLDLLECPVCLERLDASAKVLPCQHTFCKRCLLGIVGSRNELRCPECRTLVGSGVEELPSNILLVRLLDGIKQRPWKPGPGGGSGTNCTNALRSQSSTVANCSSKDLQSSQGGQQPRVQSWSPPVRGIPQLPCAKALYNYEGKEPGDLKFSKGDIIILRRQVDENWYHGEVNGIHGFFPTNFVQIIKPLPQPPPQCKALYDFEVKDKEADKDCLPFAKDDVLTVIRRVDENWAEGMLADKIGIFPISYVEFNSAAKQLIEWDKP
In words: IC50 assay procedure: GST-POSH auto-ubiquitination, homogeneous time-resolved fluorescence (Ub-cryptate / anti-GST XL665). The format is biochemical. To be noted: ubiquitin ligase activity of POSH; GST-POSH 33 nM, 30 min preincubation. In short, it runs like this: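 GST-POSH (33 nM) preincubated 30 min at RT with compounds (DMSO dilution series), then added to E1/E2/Eu-cryptate-ubiquitin enzyme mix for 30 min at 37 °C. Stopped with EDTA, anti-GST XL665 added 45 min at RT; HTRF signal of POSH auto-ubiquitination read, triplicates, IC50 from concentration series.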

Molecule `Cc1cc(O)c(C(=O)/C=C/c2cccc(I)c2)c(=O)o1` [Compound 87] gave an IC50 of 800 nM.
In the case of `O=C(Nc1cccc2c(NC(=O)C3C4CCCCC43)cccc12)C1C2CCCCC21` (stereo not drawn) [Compound 97] it was 600 nM; in that of `Cc1ccc(C(=O)NN=C2CCC(=NNC(=O)c3ccc(C)cc3)CC2)cc1` [Compound 93], 1300 nM; in that of `O=C(/C=C/c1cccnc1)c1ccc(C(=O)/C=C/c2cccnc2)cc1` [Compound 92], 500 nM.
In the case of `O=C(NCc1ccc(Cl)cc1)C(=O)Nc1ccccc1` [Compound 104] it was 1000 nM.
The value for `Cc1[nH]c(=O)c(C(=O)/C=C/c2ccccc2F)c2c1CCCC2` [Compound 95] was 1000 nM; that for `COC(=O)C1=C(C(=O)OC)SC(=C2C(=S)C(C)(C)N(C(C)=O)c3cc(C)ccc32)S1` [Compound 99] was 1500 nM; that for `CN(C)c1ccc(/C=C2/C(=O)NC(=O)N(C3CCCCC3)C2=O)cc1` [Compound 3] was 900 nM.
The molecule `O=C1c2ccccc2-c2nc3nonc3nc21` [Compound 91] had an IC50 of 300 nM. This IC50 lies about 3-fold lower than the previous one.
Consider `O=C(Cc1ccccc1)N1N=CCC1(O)c1ccc(F)cc1` (stereo not drawn) [Compound 94], for which it took 1000 nM to reach half-maximal inhibition (IC50).
The value for `O=C(O)COc1ccc2c(c1)oc(=O)c1ccccc12` [Compound 85] was 700 nM.
In the case of `COc1ccc(C(=O)CC2=C(O)C(=O)c3ccccc3C2=O)cc1` [Compound 89] it was 1000 nM.
In the case of `COc1ccc(Nc2ccc(O)c3c2C(=O)c2ccccc2C3=O)cc1` [Compound 100] it was 700 nM; in that of `Cc1cc(OC(=O)Cn2c(=O)sc3ccccc32)ccc1Cl` [Compound 103], 400 nM; in that of `COc1cc(C2Nc3ccccc3NC3=C2C(=O)CC(C)(C)C3)cc(Br)c1O` (stereo not drawn) [Compound 102], 800 nM.
`O=C1NC(=O)N(c2ccccc2)C(=O)/C1=C\c1ccc2c(c1)OCO2` [Compound 4] registered an IC50 of 800 nM.
As to `O=C(NC(C(Cl)(Cl)Cl)S(=O)(=O)c1ccccc1)c1ccc(Cl)cc1Cl` (stereo not drawn) [Compound 88], 250 nM corresponded to half-maximal inhibition (IC50).
In the case of `O=c1oc2ccccc2c(O)c1C(=S)Nc1ccccc1` [Compound 96] it was 500 nM.

As usually defined, the IC50 is the midpoint of a concentration-inhibition curve. A lower IC50 goes with greater potency.

The values above are taken from patent US7659277B2, “Ubiquitin ligase inhibitors and methods related thereto” (Proteologies, Ltd., priority 2003, dated 2010).
